Values of other authors in patent publication US20040092577A1, “Microparticle pharmaceutical compositions for intratumoral delivery” (priority 2002, published 2004).

Key:
[1] = gels, 0.6% loading; Zentner 2001
[2] = system: MDA-468 breast cancer cells; conditions: Lankmela et al.

duration of delivery [1] | rate of uptake α [2] | Compound
1 to 6 weeks | – | CC(=O)O[C@H]1C(=O)[C@@]2(C)[C@H]([C@H](OC(=O)c3ccccc3)[C@]3(O)C[C@H](OC(=O)[C@H](O)[C@@H](NC(=O)c4ccccc4)c4ccccc4)C(C)=C1C3(C)C)[C@]1(OC(C)=O)CO[C@@H]1C[C@@H]2O [Paclitaxel]
– | 0.016 s⁻¹ | COc1cccc2c1C(=O)c1c(O)c3c(c(O)c1C2=O)C[C@@](O)(C(=O)CO)C[C@@H]3O[C@H]1C[C@H](N)[C@H](O)[C@H](C)O1 [doxorubicin]
